# Measurements published in US10174037B2, “Dihydropyrazolopyrimidinone compounds as PDE2 inhibitors” (Merck Sharp & Dohme Corp., priority 2015, dated 2019).
# Target: Rhesus PDE2A3 (Macaca mulatta, UniProt B3VTJ2)
# Assay: PDE2 fluorescence polarization (IMAP FP) assay, rhesus PDE2A3
# Format: biochemical, rhesus macaque
# Conditions: Lab B, read-out: Rhesus PDE2 Ki (nM) Lab B
# Description: A Labcyte Echo 555 (Labcyte, Sunnyvale, Calif.) is used to dispense 200 nL from each well of the titration plate to the 384 well assay plate. Ten microliters of a solution of enzyme (1/2000 final dilution from aliquots; sufficient to produce 20% substrate conversion) was added to the assay plate. Next 10 uL of a separate solution of the substrate FAM-labeled cAMP (50 nM final concentration product # R7506 from Molecular Devices) and the activator cGMP (1 uM final concentration), prepared in the assay buffer (10 mM Tris HCl, pH 7.2, 10 mM MgCl2, 0.05% NaN3 0.01% Tween-20, and 1 mM DTT) was added to the assay plate and shaken to mix. The reaction is allowed to proceed at room temperature for 60 minutes. A binding solution is then made from the kit components, comprised of 80% Solution A, 20% Solution B and binding reagent at a volume of 1/600 the total binding solution. The enzymatic reaction is stopped by addition of 60 μL of the binding solution to each well of the assay plates and the plates are sealed and shaken for 30 seconds. The plate was incubated at room temperature for at least one hour prior to determining the fluorescence polarization (FP). The parallel and perpendicular fluorescence of each well of the plate was measured using a Tecan Genios Pro plate reader (Tecan, Switzerland) or Perkin Elmer EnVision™ plate reader (Waltham, Mass.). Fluorescence polarization (mP) was calculated from the parallel (S) and perpendicular (P) fluorescence of each sample well and the analogous values for the median control well, containing only substrate (So and Po), using the following equation: Polarization (mP)=1000*(S/So−P/Po)/(S/So+P/Po).
# Dose-inhibition profiles for each compound were characterized by fitting the mP data to a four-parameter equation given below.
# An apparent (KM) for FAM-labeled cAMP of ˜10 uM was used.
# Sequence of Rhesus PDE2A3 (B3VTJ2 1-941): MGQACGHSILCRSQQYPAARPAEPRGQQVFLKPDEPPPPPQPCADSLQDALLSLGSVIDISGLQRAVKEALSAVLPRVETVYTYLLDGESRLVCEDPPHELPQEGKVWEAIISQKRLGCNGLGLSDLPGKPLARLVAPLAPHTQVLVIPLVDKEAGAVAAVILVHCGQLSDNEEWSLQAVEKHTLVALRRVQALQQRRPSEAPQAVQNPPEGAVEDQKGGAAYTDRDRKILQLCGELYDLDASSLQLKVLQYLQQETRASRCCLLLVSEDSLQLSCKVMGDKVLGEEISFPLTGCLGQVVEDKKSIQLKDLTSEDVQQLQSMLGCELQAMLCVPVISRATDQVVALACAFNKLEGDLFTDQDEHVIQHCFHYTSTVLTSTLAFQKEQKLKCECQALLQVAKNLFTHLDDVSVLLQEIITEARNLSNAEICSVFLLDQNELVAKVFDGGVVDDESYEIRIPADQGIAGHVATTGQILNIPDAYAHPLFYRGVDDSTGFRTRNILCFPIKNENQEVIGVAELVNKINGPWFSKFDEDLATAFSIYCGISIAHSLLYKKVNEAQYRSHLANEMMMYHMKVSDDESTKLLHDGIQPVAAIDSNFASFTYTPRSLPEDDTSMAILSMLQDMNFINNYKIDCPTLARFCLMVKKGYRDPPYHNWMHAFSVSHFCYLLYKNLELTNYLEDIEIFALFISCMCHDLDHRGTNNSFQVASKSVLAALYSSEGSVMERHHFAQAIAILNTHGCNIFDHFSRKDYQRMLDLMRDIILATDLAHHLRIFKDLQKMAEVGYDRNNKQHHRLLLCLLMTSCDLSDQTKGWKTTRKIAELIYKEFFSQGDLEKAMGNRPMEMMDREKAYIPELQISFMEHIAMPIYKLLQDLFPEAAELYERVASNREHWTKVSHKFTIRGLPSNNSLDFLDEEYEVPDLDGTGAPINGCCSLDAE
row,Compound,Ki
1,"CC(C)(C)C(c1ccc(C(F)(F)F)cc1)n1nc(C(F)F)c2c(=O)[nH]c(O)nc21 (single isomer, unassigned) [Example 283, (R)- or (S)-3-(Difluoromethyl)-1-(2,2-dimethyl-1-(4-(trifluoromethyl)phenyl)propyl)-6-hydroxy-1H-pyrazolo[3,4-d]pyrimidin-4(5H)-one]",~1510 nM
2,"CC(C)C(c1ccc(OC(F)(F)F)c(F)c1)n1nc(CC(F)(F)F)c2c(=O)[nH]c(O)nc21 (single isomer, unassigned) [Example 265, (S)- or (R)-1-(1-(3-Fluoro-4-(trifluoromethoxy)phenyl)-2-methylpropyl)-6-hydroxy-3-(2,2,2-trifluoroethyl)-1H-pyrazolo[3,4-d]pyrimidin-4(5H)-one]",276 nM
3,"CC(C)C(c1ccc(OC(F)(F)F)c(F)c1)n1nc(CC(F)(F)F)c2c(=O)[nH]c(O)nc21 (single isomer, unassigned) [Example 264, (R)- or (S)-1-(1-(3-Fluoro-4-(trifluoromethoxy)phenyl)-2-methylpropyl)-6-hydroxy-3-(2,2,2-trifluoroethyl)-1H-pyrazolo[3,4-d]pyrimidin-4(5H)-one]",600 nM
4,"O=c1[nH]c(O)nc2c1c(CO)nn2C(CC(F)(F)F)c1ccc(C(F)(F)F)cc1 (single isomer, unassigned) [Example 22]",253 nM
5,"CC(C)(C)C(c1ccc(C(F)(F)F)cc1)n1nc(CF)c2c(=O)[nH]c(O)nc21 (single isomer, unassigned) [Example 52]",910 nM
6,"CC(C)(C)C(c1ccc(C(F)(F)F)cc1)n1nc(CC(F)(F)F)c2c(=O)[nH]c(O)nc21 (single isomer, unassigned) [Example 262, (R)- or (S)-1-(2,2-Dimethyl-1-(4-(trifluoromethyl)phenyl)propyl)-6-hydroxy-3-(2,2,2-trifluoroethyl)-1H-pyrazolo[3,4-d]pyrimidin-4(5H)-one]",334 nM
7,"C[C@@H](c1ccc(C(F)(F)F)cc1)n1nc(COCc2ccccc2)c2c(=O)[nH]c(O)nc21 [Example 303, (S)-3-((Benzyloxy)methyl)-6-hydroxy-1-(1-(4-(trifluoromethyl)phenyl)ethyl)-1,5-dihydro-4H-pyrazolo[3,4-d]pyrimidin-4-one]",206 nM
8,"CC(C)(C)C(c1ccc(C(F)(F)F)c(F)c1)n1nc(CO)c2c(=O)[nH]c(O)nc21 (single isomer, unassigned) [Example 24]",~2270 nM
9,"CC(C)(C)C(c1ccc(C(F)(F)F)cc1)n1nc(CO)c2c(=O)[nH]c(O)nc21 (single isomer, unassigned) [Example 30, (S)- or (R)-1-(2,2-Dimethyl-1-(4-(trifluoromethyl)phenyl)propyl)-6-hydroxy-3-(hydroxymethyl)-1H-pyrazolo[3,4-d]pyrimidin-4(5H)-one]",2040 nM
10,"C[C@H](c1ccc(C(F)(F)F)c(F)c1)n1nc(CF)c2c(=O)[nH]c(O)nc21 (mixture of isomers) [Example 35, (R)- and (S)-1-(1-(3-Fluoro-4-(trifluoromethyl)phenyl)ethyl)-3-(fluoromethyl)-6-hydroxy-H-pyrazolo[3,4-d]pyrimidin-4(5H)-one]",209 nM
11,"CC(c1ccc(OC(F)(F)F)c(F)c1)n1nc(CC#N)c2c(=O)[nH]c(O)nc21 (single isomer, unassigned) [Example 300, (S)- or (R)-2-(1-(1-(3-Fluoro-4-(trifluoromethoxy)phenyl)ethyl)-6-hydroxy-4-oxo-4,5-dihydro-1H-pyrazolo[3,4-d]pyrimidin-3-yl)acetonitrile]",101 nM
12,"CC(c1ccc(C(F)(F)F)c(F)c1)n1nc(CO)c2c(=O)[nH]c(O)nc21 (single isomer, unassigned) [Example 2]",364 nM

# Target: human PDE2A1 (Homo sapiens (Human), UniProt O00408)
# Sequence (O00408 other isoform, or with tags, fused parts or gaps): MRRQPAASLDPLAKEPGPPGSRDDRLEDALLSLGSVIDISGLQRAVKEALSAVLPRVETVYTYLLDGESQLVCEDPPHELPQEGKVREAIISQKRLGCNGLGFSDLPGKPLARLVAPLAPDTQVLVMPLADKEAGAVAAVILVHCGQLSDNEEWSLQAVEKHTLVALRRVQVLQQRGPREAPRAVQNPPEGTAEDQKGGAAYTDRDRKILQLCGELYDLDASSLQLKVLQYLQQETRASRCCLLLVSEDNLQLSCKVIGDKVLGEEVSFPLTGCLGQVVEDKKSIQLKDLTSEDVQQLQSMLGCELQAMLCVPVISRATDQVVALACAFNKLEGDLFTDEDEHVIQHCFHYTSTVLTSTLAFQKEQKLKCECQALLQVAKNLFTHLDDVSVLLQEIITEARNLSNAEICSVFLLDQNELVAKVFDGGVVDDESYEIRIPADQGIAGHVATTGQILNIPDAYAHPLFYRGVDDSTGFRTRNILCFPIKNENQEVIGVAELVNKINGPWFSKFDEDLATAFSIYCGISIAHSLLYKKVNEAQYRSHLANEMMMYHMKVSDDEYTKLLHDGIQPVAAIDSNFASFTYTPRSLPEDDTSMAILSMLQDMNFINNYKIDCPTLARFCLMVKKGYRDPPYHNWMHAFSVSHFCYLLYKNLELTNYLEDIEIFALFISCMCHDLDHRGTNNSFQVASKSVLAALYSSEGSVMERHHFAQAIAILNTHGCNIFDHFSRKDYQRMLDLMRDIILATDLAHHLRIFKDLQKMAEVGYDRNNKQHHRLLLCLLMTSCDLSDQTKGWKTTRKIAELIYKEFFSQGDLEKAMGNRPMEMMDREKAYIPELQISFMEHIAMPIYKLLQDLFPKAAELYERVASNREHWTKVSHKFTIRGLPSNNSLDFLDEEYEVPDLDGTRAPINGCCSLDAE
# Assay: PDE selectivity IMAP FP assay, human PDE2A1
# Format: biochemical
# Conditions: Human PDE2; Lab B; read-out: Human PDE2 Ki (nM) Lab B
# Outline: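 IMAP fluorescence polarization assay; PDE2 substrate 50 nM FAM-cAMP containing 1000 nM cGMP, enzyme diluted for 20% substrate conversion, in 10 mM Tris HCl pH 7.2, 10 mM MgCl2, 1 mM DTT. Reaction 60 min at room temperature, stopped with IMAP binding solution; polarization read after 1 h. Ki reported.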
row,Compound,Ki
1,"CC(c1ccc(C(C)(C)C)cc1)n1nc(CO)c2c(=O)[nH]c(N(C)C)nc21 (single isomer, unassigned) [Example 67, (S)- or (R)-1-(1-(4-tert-Butylphenyl)ethyl)-6-(dimethylamino)-3-(hydroxymethyl)-1H-pyrazolo[3,4-d]pyrimidin-4(5H)-one]",0.25 nM
